From the supplement of paper PMC10307832

Assays:
Assay in all cases: relative viability (nuclei count vs DMSO), 5 days (fraction); higher = more cells survive
[1] = test system: EKVX
Outline: (§1)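 Nuclei were stained with Hoechst during a one-step fixation (final 0.05% Triton X-100, 1% formaldehyde, 1 ug/ml Hoechst) carried out 5 days after dosing, then counted on 4× images. The cells, lung cancer lines in 1536-well plates, had been dosed by pin tool the day after seeding with one drug alone or a fixed anchor-drug dose plus five library-drug doses (not always all listed) in √10 steps. Relative viability is the nuclei count in treated wells divided by that in vehicle wells, and each value is the median of duplicate plates.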

[2] = test system: LCLC-97TM1
Outline: as §1

[3] = test system: NCI-H1437
Outline: as §1

[4] = test system: NCI-H1650
Outline: as §1

[5] = test system: NCI-H1666
Outline: as §1

[6] = test system: NCI-H1792
Outline: as §1

[7] = test system: NCI-H1915
Outline: as §1

[8] = test system: NCI-H1975
Outline: as §1

[9] = test system: NCI-H2342
Outline: as §1

[10] = test system: NCI-H23
Outline: as §1

[11] = test system: NCI-H322M
Outline: as §1

[12] = test system: NCI-H358
Outline: as §1

[13] = test system: NCI-H441
Outline: as §1

[14] = test system: NCI-H460
Outline: as §1

[15] = test system: NCI-H520
Outline: as §1

[16] = test system: NCI-H522
Outline: as §1

[17] = test system: NCI-H596
Outline: as §1

[18] = test system: NCI-H647
Outline: as §1

[19] = test system: NCI-H661
Outline: as §1

[20] = test system: NCI-H727
Outline: as §1

[21] = test system: NCI-H838
Outline: as §1

[22] = test system: PC-3 [JPC-3]
Outline: as §1

[23] = test system: SK-LU-1
Outline: as §1

Cc1csc(=NC2CCCCC2)n1/N=C/c1ccc(O)c(O)c1O [MIM1] + Nc1ncn([C@H]2C[C@H](O)[C@@H](CO)O2)c(=O)n1 [Decitabine] (partner 2 µM)
relative viability ([1]; first compound 0.2 µM): 0.405
relative viability ([1]; first compound 0.6325 µM): 0.342
relative viability ([1]; first compound 2 µM): 0.331
relative viability ([1]; first compound 6.325 µM): 0.321
relative viability ([1]; first compound 20 µM): 0.341
relative viability ([2]; first compound 0.2 µM): 0.245
relative viability ([2]; first compound 0.6325 µM): 0.238
relative viability ([2]; first compound 2 µM): 0.234
relative viability ([2]; first compound 6.325 µM): 0.214
relative viability ([2]; first compound 20 µM): 0.0699
relative viability ([3]; first compound 0.2 µM): 0.592
relative viability ([3]; first compound 0.6325 µM): 0.547
relative viability ([3]; first compound 2 µM): 0.586
relative viability ([3]; first compound 6.325 µM): 0.368
relative viability ([3]; first compound 20 µM): 0.303
relative viability ([4]; first compound 0.2 µM): 0.428
relative viability ([4]; first compound 0.6325 µM): 0.448
relative viability ([4]; first compound 2 µM): 0.348
relative viability ([4]; first compound 6.325 µM): 0.199
relative viability ([4]; first compound 20 µM): 0.135
relative viability ([5]; first compound 0.2 µM): 0.714
relative viability ([5]; first compound 0.6325 µM): 0.741
relative viability ([5]; first compound 2 µM): 0.665
relative viability ([5]; first compound 6.325 µM): 0.734
relative viability ([5]; first compound 20 µM): 0.467
relative viability ([6]; first compound 0.2 µM): 0.574
relative viability ([6]; first compound 0.6325 µM): 0.497
relative viability ([6]; first compound 2 µM): 0.611
relative viability ([6]; first compound 6.325 µM): 0.439
relative viability ([6]; first compound 20 µM): 0.411
relative viability ([7]; first compound 0.2 µM): 0.263
relative viability ([7]; first compound 0.6325 µM): 0.273
relative viability ([7]; first compound 2 µM): 0.256
relative viability ([7]; first compound 6.325 µM): 0.232
relative viability ([7]; first compound 20 µM): 0.245
relative viability ([8]; first compound 0.2 µM): 0.384
relative viability ([8]; first compound 0.6325 µM): 0.385
relative viability ([8]; first compound 2 µM): 0.39
relative viability ([8]; first compound 6.325 µM): 0.216
relative viability ([8]; first compound 20 µM): 0.137
relative viability ([9]; first compound 0.2 µM): 0.724
relative viability ([9]; first compound 0.6325 µM): 0.721
relative viability ([9]; first compound 2 µM): 0.708
relative viability ([9]; first compound 6.325 µM): 0.664
relative viability ([9]; first compound 20 µM): 0.724
relative viability ([10]; first compound 0.2 µM): 0.336
relative viability ([10]; first compound 0.6325 µM): 0.322
relative viability ([10]; first compound 2 µM): 0.288
relative viability ([10]; first compound 6.325 µM): 0.281
relative viability ([10]; first compound 20 µM): 0.169
relative viability ([11]; first compound 0.2 µM): 0.622
relative viability ([11]; first compound 0.6325 µM): 0.74
relative viability ([11]; first compound 2 µM): 0.736
relative viability ([11]; first compound 6.325 µM): 0.642
relative viability ([11]; first compound 20 µM): 0.653
relative viability ([12]; first compound 0.2 µM): 0.212
relative viability ([12]; first compound 0.6325 µM): 0.224
relative viability ([12]; first compound 2 µM): 0.216
relative viability ([12]; first compound 6.325 µM): 0.148
relative viability ([12]; first compound 20 µM): 0.119
relative viability ([13]; first compound 0.2 µM): 0.132
relative viability ([13]; first compound 0.6325 µM): 0.252
relative viability ([13]; first compound 2 µM): 0.241
relative viability ([13]; first compound 6.325 µM): 0.173
relative viability ([13]; first compound 20 µM): 0.178
relative viability ([14]; first compound 0.2 µM): 0.438
relative viability ([14]; first compound 0.6325 µM): 0.479
relative viability ([14]; first compound 2 µM): 0.43
relative viability ([14]; first compound 6.325 µM): 0.182
relative viability ([14]; first compound 20 µM): 0.0456
relative viability ([15]; first compound 0.2 µM): 0.574
relative viability ([15]; first compound 0.6325 µM): 0.485
relative viability ([15]; first compound 2 µM): 0.526
relative viability ([15]; first compound 6.325 µM): 0.43
relative viability ([15]; first compound 20 µM): 0.284
relative viability ([16]; first compound 0.2 µM): 0.625
relative viability ([16]; first compound 0.6325 µM): 0.632
relative viability ([16]; first compound 2 µM): 0.711
relative viability ([16]; first compound 6.325 µM): 0.691
relative viability ([16]; first compound 20 µM): 0.63
relative viability ([17]; first compound 0.2 µM): 1.09
relative viability ([17]; first compound 0.6325 µM): 1.1
relative viability ([17]; first compound 2 µM): 0.831
relative viability ([17]; first compound 6.325 µM): 0.84
relative viability ([17]; first compound 20 µM): 0.841
relative viability ([18]; first compound 0.2 µM): 0.414
relative viability ([18]; first compound 0.6325 µM): 0.364
relative viability ([18]; first compound 2 µM): 0.397
relative viability ([18]; first compound 6.325 µM): 0.33
relative viability ([18]; first compound 20 µM): 0.126
relative viability ([19]; first compound 0.2 µM): 0.496
relative viability ([19]; first compound 0.6325 µM): 0.571
relative viability ([19]; first compound 2 µM): 0.577
relative viability ([19]; first compound 6.325 µM): 0.416
relative viability ([19]; first compound 20 µM): 0.284
relative viability ([20]; first compound 0.2 µM): 0.994
relative viability ([20]; first compound 0.6325 µM): 0.818
relative viability ([20]; first compound 2 µM): 0.841
relative viability ([20]; first compound 6.325 µM): 0.879
relative viability ([20]; first compound 20 µM): 0.574
relative viability ([21]; first compound 0.2 µM): 0.468
relative viability ([21]; first compound 0.6325 µM): 0.462
relative viability ([21]; first compound 2 µM): 0.513
relative viability ([21]; first compound 6.325 µM): 0.394
relative viability ([21]; first compound 20 µM): 0.221
relative viability ([22]; first compound 0.2 µM): 0.816
relative viability ([22]; first compound 0.6325 µM): 0.894
relative viability ([22]; first compound 2 µM): 0.752
relative viability ([22]; first compound 6.325 µM): 0.774
relative viability ([22]; first compound 20 µM): 0.609
relative viability ([23]; first compound 0.2 µM): 0.686
relative viability ([23]; first compound 0.6325 µM): 0.727
relative viability ([23]; first compound 2 µM): 0.708
relative viability ([23]; first compound 6.325 µM): 0.65
relative viability ([23]; first compound 20 µM): 0.351
